Source: article PMC10282093, “Structural basis of α1A-adrenergic receptor activation and recognition by an extracellular nanobody” (Nature Communications, 2023)
“And” between values parts separate entries of the source, which are not always exact repeats. Identical values can stand only once. Like-named read-outs stand apart in the source and are kept apart here.

Tests used:
α1AAR = target: T1, α1AAR (Homo sapiens, UniProt P35348); assay: Glo-sensor cAMP signaling assay with engineered Gsq protein in HEK293T cells; conditions: HEK-293T
T1 sequence (P35348 1-466): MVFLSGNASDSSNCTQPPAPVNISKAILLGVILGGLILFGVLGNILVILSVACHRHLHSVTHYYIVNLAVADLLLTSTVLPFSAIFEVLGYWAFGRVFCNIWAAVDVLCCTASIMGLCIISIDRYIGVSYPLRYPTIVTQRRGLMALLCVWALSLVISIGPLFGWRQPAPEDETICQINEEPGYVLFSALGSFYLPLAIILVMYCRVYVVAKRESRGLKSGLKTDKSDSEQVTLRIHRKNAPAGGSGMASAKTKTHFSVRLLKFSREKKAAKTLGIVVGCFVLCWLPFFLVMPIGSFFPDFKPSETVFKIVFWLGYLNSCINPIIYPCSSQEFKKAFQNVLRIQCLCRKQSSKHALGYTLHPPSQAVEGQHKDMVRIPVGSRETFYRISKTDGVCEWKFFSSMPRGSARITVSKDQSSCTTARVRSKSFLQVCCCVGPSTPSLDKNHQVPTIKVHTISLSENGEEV
Method: In brief, pGloSensor™−22F plasmid, receptor plasmid, and Gsq plasmid were transfected into HEK293T cells. At 24 h after transfection, the cells were switched into a CO2-Independent Medium (Gibco) and incubated with GloSensor^TM cAMP reagent. The mixture was then transferred to a 96-well white plate. The 96-well plate is placed at 37 °C in the dark for 1 h, then placed at room temperature in the dark for 1 h before use. […] The result curves were calculated and fitted by GraphPad Prism 9.

HEK293T cells (mock) = assay: Glo-sensor cAMP assay, mock (negative control); format: cell-based
Method: In brief, […] plasmid, receptor plasmid, and Gsq plasmid were transfected into HEK293T cells. At 24 h after transfection, the cells were switched into a CO2-Independent Medium (Gibco) and incubated with GloSensor^TM cAMP reagent. The mixture was then transferred to a 96-well white plate. The 96-well plate is placed at 37 °C in the dark for 1 h, then placed at room temperature in the dark for 1 h before use. […] The result curves were calculated and fitted by GraphPad Prism 9.

In the case of NC[C@H](O)c1ccc(O)c(O)c1 [Noradrenaline, noradrenaline], the activation at 0.01 µM (α1AAR; 5 min, read-out: α1AAR activation (Noradrenaline %), 10 nM NA, 5 min) was 27.1%, the activation at 0.01 µM (α1AAR; 5.5 min, read-out: α1AAR activation (Noradrenaline %), 10 nM NA, […]) was 32.4% and the activation at 0.01 µM (α1AAR; 0.1 h, read-out: α1AAR activation (Noradrenaline %), 10 nM NA, 6 min) was 36.3%. For the same compound, the activation at 0.01 µM (α1AAR; 6.5 min, read-out: α1AAR activation (Noradrenaline %), 10 nM NA, […]) was 40.4%, the activation at 0.01 µM (α1AAR; 7 min, read-out: α1AAR activation (Noradrenaline %), 10 nM NA, 7 min) was 44.7% and the activation at 0.01 µM (α1AAR; 0.125 h, read-out: α1AAR activation (Noradrenaline %), 10 nM NA, 7.5 min) was 51.2%. It also gave an activation at 0.01 µM (α1AAR; 8 min, read-out: α1AAR activation (Noradrenaline %), 10 nM NA, 8 min) of 54.9%, an activation at 0.01 µM (α1AAR; 8.5 min, read-out: α1AAR activation (Noradrenaline %), 10 nM NA, 8.5 min) of 60.5% and an activation at 0.01 µM (α1AAR; 0.175 h, read-out: α1AAR activation (Noradrenaline %), 10 nM NA, 10.5 min) of 78.1%. It also gave an activation at 0.01 µM (α1AAR; 11 min, read-out: α1AAR activation (Noradrenaline %), 10 nM NA, 11 min) of 83.6%, an activation at 0.01 µM (α1AAR; 11.5 min, read-out: α1AAR activation (Noradrenaline %), 10 nM NA, […]) of 88.1% and an activation at 0.01 µM (α1AAR; 0.2 h, read-out: α1AAR activation (Noradrenaline %), 10 nM NA, 12 min) of 90.9%. The activation at 0.01 µM (α1AAR; 12.5 min, read-out: α1AAR activation (Noradrenaline %), 10 nM NA, 12.5 min) was 92.5%, the activation at 0.01 µM (α1AAR; 13 min, read-out: α1AAR activation (Noradrenaline %), 10 nM NA, 13 min) was 95.2% and the activation at 0.01 µM (α1AAR; 0.225 h, read-out: α1AAR activation (Noradrenaline %), 10 nM NA, 13.5 min) was 98.2%. The activation at 0.01 µM (α1AAR; 14 min, read-out: α1AAR activation (Noradrenaline %), 10 nM NA, 14 min) was 99.3%, the activation at 0.01 µM (α1AAR; 14.5 min, read-out: α1AAR activation (Noradrenaline %), 10 nM NA, […]) was 99.1% and the activation at 0.01 µM (α1AAR; 0.25 h, read-out: α1AAR activation (Noradrenaline %), 10 nM NA, 15 min) was 102%. For the same compound, the activation at 0.01 µM (α1AAR; 15.5 min, read-out: α1AAR activation (Noradrenaline %), 10 nM NA, 15.5 min) was 102%, the activation at 0.01 µM (α1AAR; 16 min, read-out: α1AAR activation (Noradrenaline %), 10 nM NA, 16 min) was 101% and the activation at 0.01 µM (α1AAR; 17 min, read-out: α1AAR activation (Noradrenaline %), 10 nM NA, 17 min) was 99.9%. It also gave an activation at 0.01 µM (α1AAR; 17.5 min, read-out: α1AAR activation (Noradrenaline %), 10 nM NA, 17.5 min) of 99.3%, an activation at 0.01 µM (α1AAR; 0.3 h, read-out: α1AAR activation (Noradrenaline %), 10 nM NA, 18 min) of 99.3% and an activation at 0.01 µM (α1AAR; 18.5 min, read-out: α1AAR activation (Noradrenaline %), 10 nM NA, 18.5 min) of 99%. For the same compound, the activation at 0.01 µM (α1AAR; 19 min, read-out: α1AAR activation (Noradrenaline %), 10 nM NA, 19 min) was 96.4%, the activation at 0.01 µM (α1AAR; 0.325 h, read-out: α1AAR activation (Noradrenaline %), 10 nM NA, 19.5 min) was 97.2% and the activation at 0.01 µM (α1AAR; 20 min, read-out: α1AAR activation (Noradrenaline %), 10 nM NA, 20 min) was 96%. For the same compound, the activation at 0.01 µM (α1AAR; […], read-out: α1AAR activation (Noradrenaline %), 10 nM NA, 9 min) was 64.4%, the activation at 0.01 µM (α1AAR; […], read-out: α1AAR activation (Noradrenaline %), 10 nM NA, 16.5 min) was 100% and the activation at 100 µM (α1AAR; read-out: α1AAR activation (Noradrenaline %), NA Log[M] -4) was 86.3%. For the same compound, the activation at 1 µM (α1AAR; read-out: α1AAR activation (Noradrenaline %), NA Log[M] -6) was 105%, the activation at 0.1 µM (α1AAR; read-out: α1AAR activation (Noradrenaline %), NA Log[M] -7) was 82.8% and the activation at 0.01 µM (α1AAR; read-out: α1AAR activation (Noradrenaline %), NA Log[M] -8) was 45.2%. For the same compound, the “cAMP Glo-sensor signal (Noradrenaline %)” value (HEK293T cells (mock); NA Log[M] -4, listed as NA) was 41.093% and 40.8624% and 40.5271%, the “cAMP Glo-sensor signal (Noradrenaline %)” value (HEK293T cells (mock); NA Log[M] -5, listed as NA) was 20.1779% and 21.0064% and 19.7646% and the “cAMP Glo-sensor signal (Noradrenaline %)” value (HEK293T cells (mock); NA Log[M] -6, listed as NA) was 7.941% and 8.285% and 8.539%. For the same compound, the “cAMP Glo-sensor signal (Noradrenaline %)” value (HEK293T cells (mock); NA Log[M] -7, listed as NA) was 6.318% and 5.663% and 5.337%, the “cAMP Glo-sensor signal (Noradrenaline %)” value (HEK293T cells (mock); NA Log[M] -8, listed as NA) was 5.486% and 4.494% and 5.028% and the “cAMP Glo-sensor signal (Noradrenaline %)” value (HEK293T cells (mock); NA Log[M] -9, listed as NA) was 5.1702% and 5.365% and 5.344%. The “cAMP Glo-sensor signal (Noradrenaline %)” value (HEK293T cells (mock); NA Log[M] -10, listed as NA) was 5.58% and 5.603% and 5.064% and the “cAMP Glo-sensor signal (Noradrenaline %)” value (HEK293T cells (mock); NA Log[M] -11, listed as NA) was 6.233% and 5.97% and 5.757%.
